Experimental findings from ChEMBL document CHEMBL5365543, “Benzamidine Conjugation Converts Expelled Potential Active Agents into Antifungals against Drug-Resistant Fungi” (J Med Chem, 2023) are described below.

The subject of data set [1] is [Candida] auris. Put plainly: Antifungal activity against clinical isolate fluconazole-resistant Candida auris CBS12774 assessed as decrease in viable count at 2 to 4 microg/ml by colony-counting based time-killing kinetics assay. The data set is classed as functional, organism-based. Conditions: Candidozyma auris, dose 2-4 µg/ml, time 24.0 hrs, TDE = time-dependent effect.

Data set [2] in a line: Cytotoxicity against human HBE cells assessed as inhibition of cell growth measured after 4 hrs by MTT assay. The class given is toxicity, cell-based.
The test system of data set [3] is Candida albicans. Kind of data set: Antifungal activity against clinical isolate fluconazole-resistant Candida albicans Gu5 infected in BALB/c mouse assessed as reduction in renal neutrophil infiltration at 6 mg/kg, ip administered on day 1 and day 3 post fungal infection measured after 7 days by periodic acid-schiff/hematoxylin and eosin staining based microscopic analysis. The data set is classed as functional, organism-based. Conditions: time 7.0 day.

For data set [4], the system named is [Candida] auris. Put plainly: Antifungal activity against clinical isolate fluconazole-resistant Candida auris CBS12774 assessed as decrease in viable count measured after 24 hrs by colony-counting based time-killing kinetics assay. The class given is functional, organism-based. Conditions: Candidozyma auris, dose 2-4 µg/ml.
Data set [5] in a line: Selectivity ratio of IC50 for cytotoxicity against human HBE cells to MIC80 for antifungal activity against clinical isolate fluconazole-resistant Candida albicans G5 harbouring MRR1 mutation overexpressing MdrL. The data set is classed as toxicity, cell-based.
Data set [6] deals with Candida albicans. Put plainly: Inhibition of biofilm formation in fluconazole-resistant clinical isolate Candida albicans Gu5 at 8 microg/ml measured after 24 hrs by alamar blue staining based colorimetric analysis. The class given is functional.
Data set [7] has as its system [Candida] auris. Kind of data set: Inhibition of biofilm formation in clinical isolate fluconazole-resistant Candida auris CBS12774 at 2 microg/ml measured after 24 hrs by alamar blue staining based colorimetric analysis. The class given is functional, organism-based. Conditions: Candidozyma auris, dose 2.0 µg/ml.
Data set [8] concerns Cryptococcus neoformans. Put plainly: Antifungal activity against clinical isolate fluconazole-resistant Cryptococcus neoformans H99 assessed as inhibition of fungal growth measured after 24 hrs by CLSI based microtiter plate analysis. The data set is classed as functional.
In data set [9] the test system is Candida albicans. Kind of data set: Antifungal activity against clinical isolate fluconazole-resistant Candida albicans CA632 assessed as inhibition of fungal growth measured after 24 hrs by CLSI based microtiter plate analysis. The class given is functional.
Data set [10] can be described thus: Selectivity ratio of IC50 for cytotoxicity against human HBE cells to MIC80 for antifungal activity against clinical isolate fluconazole-resistant Candida tropicalis CT10. The class given is toxicity, cell-based.
Data set [11] deals with Candida albicans. Put plainly: Antifungal activity against clinical isolate fluconazole-resistant Candida albicans Gu5 infected in BALB/c mouse assessed as reduction in kidney fungal infection at 6 mg/kg, ip administered on day 1 and day 3 post fungal infection measured after 7 days by periodic acid-schiff/hematoxylin and eosin staining based microscopic analysis. The data set is classed as functional, organism-based. Conditions: time 7.0 day.

In brackets after ≈: the same amount, converted by molar mass. Activity calls are given as the source filed them. No cut-off for these calls is given here.

For the molecule `C=C1C(=O)[C@@]2(C)CC[C@@H]3[C@@]1(CC[C@H]1[C@@]3(C)CCC[C@@]1(C)C(=O)OCCCOc1ccc(C(=N)N)cc1)C2`, the Activity result in data set [1] was “Tde”; in data set [4] it was “Dose-Dependent Effect”. In data set [2], the IC50 at 4 h stood at 16.7 µg/mL (≈ 33 µM). Besides, the result in data set [3] and in data set [11] was Active. For the same molecule, the selectivity ratio in [5] and in data set [10] was 8 throughout. Also, in [6], 8 µg/mL produced 81.5% inhibition. In addition, the inhibition entry in data set [7] was “Active”. Further, the MIC80 in data set [8] worked out at 2 µg/mL (≈ 3.95 µM); in data set [9], 1 µg/mL (≈ 1.97 µM).
